In article PMC5754384, “Evaluation of carboxamide-type synthetic cannabinoids as CB1/CB2 receptor agonists: difference between the enantiomers” (Forensic Toxicology, 2017):
“Also recorded” adds a separate entry of the source.

Legend:
human CB2 receptor = human CB2 receptor (Homo sapiens, UniProt P34972); assay: [35S]GTPγS binding assay, CB2 receptor agonistic activity; type: biochemical; conditions: for Selective index (CB1/CB2): EC50 ratio of the CB1 to CB2; for Human CB2 receptor S/R ratio: EC50 value ratio of an (S)-enantiomer to the corresponding (R)-enantiomer; for EC50: Human CB2 receptor EC50, [35S]GTPγS binding, tested 1 × 10^−11 to 1 × 10^−4 M; for CB2 receptor agonist activity (in words): [35S]GTPγS binding
human CB2 receptor, sequence (P34972 whole entry): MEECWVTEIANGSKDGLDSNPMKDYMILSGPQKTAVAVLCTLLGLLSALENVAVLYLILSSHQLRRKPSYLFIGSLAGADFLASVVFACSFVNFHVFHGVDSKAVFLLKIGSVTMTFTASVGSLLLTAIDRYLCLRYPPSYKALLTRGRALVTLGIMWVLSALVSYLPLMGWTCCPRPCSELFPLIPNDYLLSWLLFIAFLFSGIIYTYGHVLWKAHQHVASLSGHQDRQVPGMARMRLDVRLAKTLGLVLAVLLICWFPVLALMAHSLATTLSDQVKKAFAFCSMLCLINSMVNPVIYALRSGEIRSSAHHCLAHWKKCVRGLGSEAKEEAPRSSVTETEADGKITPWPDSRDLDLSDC
Procedure: (§1) For the evaluation of CB1/CB2 cannabinoid receptor activity, [^35S]GTPγS binding assays were performed. These assays were performed at ADME and Tox. Research Institute, Sekisui Medical Co., Ltd. (Tokai-mura, Ibaraki, Japan).

human CB1 receptor = human CB1 receptor (Homo sapiens, UniProt P21554); assay: [35S]GTPγS binding assay, CB1 receptor agonistic activity; type: biochemical; conditions: for Human CB1 receptor S/R ratio: EC50 value ratio of an (S)-enantiomer to the corresponding (R)-enantiomer; for difference in the EC50 levels between the enantiomers to activate the CB1 receptor: (S)-enantiomer lower than (R)-enantiomer; for CB1 receptor agonist activity (in words): [35S]GTPγS binding, maximum tested concentration 1.0 × 10^−4 M
human CB1 receptor, sequence (P21554 whole entry): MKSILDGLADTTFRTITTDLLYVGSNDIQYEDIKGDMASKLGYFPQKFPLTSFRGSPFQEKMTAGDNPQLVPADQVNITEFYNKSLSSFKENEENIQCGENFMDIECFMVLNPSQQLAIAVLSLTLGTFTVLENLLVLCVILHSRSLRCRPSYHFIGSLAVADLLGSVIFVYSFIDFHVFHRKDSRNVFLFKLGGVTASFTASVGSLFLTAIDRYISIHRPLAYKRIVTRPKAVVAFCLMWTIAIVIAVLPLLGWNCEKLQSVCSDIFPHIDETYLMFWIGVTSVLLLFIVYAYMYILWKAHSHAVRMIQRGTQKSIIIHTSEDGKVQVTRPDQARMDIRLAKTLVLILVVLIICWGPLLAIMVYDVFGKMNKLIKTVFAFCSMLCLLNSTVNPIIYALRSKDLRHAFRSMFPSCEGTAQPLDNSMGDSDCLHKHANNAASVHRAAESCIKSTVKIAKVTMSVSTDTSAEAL
Procedure: as §1

Compound: CCOC(=O)[C@@H](NC(=O)c1nn(CCCCCF)c2ccccc12)C(C)C [(S)5F-EMB-PINACA, Ethyl [1-(5-fluoropentyl)-1H-indazole-3-carbonyl]-L-valinate]
- Selective index (CB1/CB2) (human CB2 receptor): 0.718
- Human CB2 receptor S/R ratio (human CB2 receptor): 4.1
- EC50 (human CB2 receptor): 6.91 nM
- EC50 (human CB1 receptor): 4.96 nM
- Human CB1 receptor S/R ratio (human CB1 receptor): 0.14

Compound: NC(=O)[C@@H](Cc1ccccc1)NC(=O)c1nn(CC2CCCCC2)c2ccccc12 [(R)-N-(1-Amino-1-oxo-3-phenylpropan-2-yl)-1-(cyclohexylmethyl)-1H-indazole-3-carboxamide]
- Selective index (CB1/CB2) (human CB2 receptor): 68.8
- Human CB2 receptor S/R ratio (human CB2 receptor): 0.017
- EC50 (human CB2 receptor): 490 nM
- EC50 (human CB1 receptor): 33700 nM
- Human CB1 receptor S/R ratio (human CB1 receptor): 0.0074

Compound: COC(=O)C(NC(=O)c1cn(Cc2ccc(F)cc2)c2ccccc12)C(C)(C)C (stereo not drawn) [MDMB-FUBICA, methyl 2-[1-(4-fluorobenzyl)-1H-indole-3-carboxamido]-3,3-dimethylbutanoate]
- difference in the EC50 levels between the enantiomers to activate the CB1 receptor (human CB1 receptor): more than 10,000 fold

Compound: CCOC(=O)[C@@H](NC(=O)c1nn(Cc2ccc(F)cc2)c2ccccc12)C(C)C [(S)EMB-FUBINACA, Ethyl [1-(4-fluorobenzyl)-1H-indazole-3-carbonyl]-L-valinate]
- Selective index (CB1/CB2) (human CB2 receptor): 0.214
- Human CB2 receptor S/R ratio (human CB2 receptor): 2.5
- EC50 (human CB2 receptor): 2.14 nM
- EC50 (human CB1 receptor): 0.458 nM
- Human CB1 receptor S/R ratio (human CB1 receptor): 0.015

Compound: CC(C)[C@H](NC(=O)c1nn(Cc2ccccc2F)c2ccccc12)C(N)=O [(S)AB-FUBINACA 2-fluorobenzyl isomer, (S)-N-(1-Amino-3-methyl-1-oxobutan-2-yl)-1-(2-fluorobenzyl)-1H-indazole-3-carboxamide]
- Selective index (CB1/CB2) (human CB2 receptor): 1.20
- Human CB2 receptor S/R ratio (human CB2 receptor): 3.9
- EC50 (human CB2 receptor): 2.44 nM
- EC50 (human CB1 receptor): 2.92 nM
- Human CB1 receptor S/R ratio (human CB1 receptor): 0.21

Compound: CCOC(=O)[C@H](NC(=O)c1nn(CCCCCF)c2ccccc12)C(C)C [(R)5F-EMB-PINACA, Ethyl [1-(5-fluoropentyl)-1H-indazole-3-carbonyl]-D-valinate]
- Selective index (CB1/CB2) (human CB2 receptor): 21.4
- Human CB2 receptor S/R ratio (human CB2 receptor): 4.1
- EC50 (human CB2 receptor): 1.68 nM
- EC50 (human CB1 receptor): 35.9 nM
- Human CB1 receptor S/R ratio (human CB1 receptor): 0.14

Compound: CCOC(=O)[C@H](NC(=O)c1nn(Cc2ccc(F)cc2)c2ccccc12)C(C)C [(R)EMB-FUBINACA, Ethyl [1-(4-fluorobenzyl)-1H-indazole-3-carbonyl]-D-valinate]
- Selective index (CB1/CB2) (human CB2 receptor): 35.6
- Human CB2 receptor S/R ratio (human CB2 receptor): 2.5
- EC50 (human CB2 receptor): 0.863 nM
- EC50 (human CB1 receptor): 30.7 nM
- Human CB1 receptor S/R ratio (human CB1 receptor): 0.015

Compound: COC(=O)[C@@H](NC(=O)c1cn(Cc2ccc(F)cc2)c2ccccc12)C(C)(C)C [(S)MDMB-FUBICA, Methyl (S)-2-[1-(4-fluorobenzyl)-1H-indole-3-carboxamido]-3,3-dimethylbutanoate]
- Selective index (CB1/CB2) (human CB2 receptor): 9.08
- Human CB2 receptor S/R ratio (human CB2 receptor): 0.35
- EC50 (human CB2 receptor): 1.07 nM
- CB2 receptor agonist activity (in words) (human CB2 receptor): could activate both of these receptors at nanomolar levels
- EC50 (human CB1 receptor): 9.72 nM
- Human CB1 receptor S/R ratio (human CB1 receptor): <0.0001
- CB1 receptor agonist activity (in words) (human CB1 receptor): could activate both of these receptors at nanomolar levels

Compound: CC(C)[C@@H](NC(=O)c1nn(Cc2ccccc2F)c2ccccc12)C(N)=O [(R)AB-FUBINACA 2-fluorobenzyl isomer, (R)-N-(1-Amino-3-methyl-1-oxobutan-2-yl)-1-(2-fluorobenzyl)-1H-indazole-3-carboxamide]
- Selective index (CB1/CB2) (human CB2 receptor): 22.5
- Human CB2 receptor S/R ratio (human CB2 receptor): 3.9
- EC50 (human CB2 receptor): 0.627 nM
- EC50 (human CB1 receptor): 14.1 nM
- Human CB1 receptor S/R ratio (human CB1 receptor): 0.21

Compound: NC(=O)[C@H](Cc1ccccc1)NC(=O)c1nn(CC2CCCCC2)c2ccccc12 [(S)-N-(1-Amino-1-oxo-3-phenylpropan-2-yl)-1-(cyclohexylmethyl)-1H-indazole-3-carboxamide]
- Selective index (CB1/CB2) (human CB2 receptor): 31.0
- Human CB2 receptor S/R ratio (human CB2 receptor): 0.017
- EC50 (human CB2 receptor): 8.09 nM
- EC50 (human CB1 receptor): 251 nM
- difference in the EC50 levels between the enantiomers to activate the CB1 receptor (human CB1 receptor): 134 fold
- Human CB1 receptor S/R ratio (human CB1 receptor): 0.0074

Compound: COC(=O)[C@H](NC(=O)c1cn(Cc2ccc(F)cc2)c2ccccc12)C(C)(C)C [(R)MDMB-FUBICA, Methyl (R)-2-[1-(4-fluorobenzyl)-1H-indole-3-carboxamido]-3,3-dimethylbutanoate]
- selective index of CB1/CB2 (human CB2 receptor; CB2 over CB1, from EC50 values): more than 3.2 × 10^4 fold
- Selective index (CB1/CB2) (human CB2 receptor): >30,000
- Human CB2 receptor S/R ratio (human CB2 receptor): 0.35
- EC50 (human CB2 receptor): 3.1 nM
- CB2 receptor agonist activity (in words) (human CB2 receptor): function as an agonist of the CB2 receptor; also recorded: functioned only on the CB2 receptor as an agonist
- EC50 (human CB1 receptor): > 100000 nM
- Human CB1 receptor S/R ratio (human CB1 receptor): <0.0001
- CB1 receptor agonist activity (in words) (human CB1 receptor): lacks CB1 receptor activity; also recorded: not confirmed; also recorded: no [^35S]GTPγS binding activity
